Assays:
[1] = tested on: L1210; test: Cytotoxicity against mouse L1210 ATCC CCL 219 cells after 48 hrs by MTT assay; format: functional, cell-based; conditions: L1210, 48 h
[2] = tested on: MCF7; test: Cytotoxicity against human MCF7 ATCC HTB 22 cells after 72 hrs by MTT assay; format: functional, cell-based; conditions: MCF7, 72 h
[3] = tested on: K562; test: Cytotoxicity against human K562 ATCC CCL 243 cells after 72 hrs by MTT assay; format: functional, cell-based; conditions: K562, 72 h
[4] = tested on: CHO; test: Cytotoxicity against CHO cells after 48 hrs by MTT assay; format: cell-based; conditions: Cricetulus griseus
[5] = tested on: CHO; test: Cytotoxicity against polyamine transport-deficient mutant CHO cells after 48 hrs by MTT assay; format: ADME, cell-based; conditions: Cricetulus griseus
[6] = tested on: U-251; test: Cytotoxicity against human U251 RCB 0641 cells after 72 hrs by MTT assay; format: functional, cell-based; conditions: U-251, 72 h
[7] = Cytotoxicity against mouse 3LL CRL 1642 cells after 48 hrs by MTT assay; format: functional, cell-based
[8] = tested on: DU-145; test: Cytotoxicity against human DU145 ATCC HTB 81 cells after 72 hrs by MTT assay; format: functional, cell-based; conditions: DU-145, 72 h
[9] = tested on: L1210; test: Induction of apoptosis in mouse L1210 ATCC CCL 219 cells assessed as fragmented cell nuclei at 3 uM after 24 hrs by Hoechst 33342 staining; format: functional
[10] = tested on: L1210; test: Induction of apoptosis in mouse L1210 ATCC CCL 219 cells assessed as fragmented cell nuclei at 3 uM after 48 hrs by Hoechst 33342 staining; format: functional
[11] = tested on: L1210; test: Induction of apoptosis in mouse L1210 ATCC CCL 219 cells assessed as fragmented cell nuclei at 4.5 uM after 24 hrs by Hoechst 33342 staining; format: functional
[12] = tested on: L1210; test: Induction of apoptosis in mouse L1210 ATCC CCL 219 cells assessed as fragmented cell nuclei at 4.5 uM after 48 hrs by Hoechst 33342 staining; format: functional
[13] = tested on: L1210; test: Induction of apoptosis in mouse L1210 ATCC CCL 219 cells assessed as fragmented cell nuclei at 6 uM after 24 hrs by Hoechst 33342 staining; format: functional
[14] = tested on: L1210; test: Induction of apoptosis in mouse L1210 ATCC CCL 219 cells assessed as fragmented cell nuclei at 6 uM after 48 hrs by Hoechst 33342 staining; format: functional
[15] = tested on: L1210; test: Induction of apoptosis in mouse L1210 ATCC CCL 219 cells assessed as increase in caspase 3 activity at 3 uM after 48 hrs relative to control; format: functional
[16] = tested on: L1210; test: Induction of apoptosis in mouse L1210 ATCC CCL 219 cells assessed as increase in caspase 3 activity at 4.5 uM after 48 hrs relative to control; format: functional
[17] = tested on: L1210; test: Induction of apoptosis in mouse L1210 ATCC CCL 219 cells assessed as increase in caspase 3 activity at 6 uM after 48 hrs relative to control; format: functional
[18] = tested on: L1210; test: Induction of apoptosis in mouse L1210 ATCC CCL 219 cells assessed as fragmented cell nuclei at 17 uM after 24 hrs by Hoechst 33342 staining; format: functional
[19] = tested on: L1210; test: Induction of apoptosis in mouse L1210 ATCC CCL 219 cells assessed as fragmented cell nuclei at 17 uM after 48 hrs by Hoechst 33342 staining; format: functional
[20] = tested on: L1210; test: Induction of apoptosis in mouse L1210 ATCC CCL 219 cells assessed as fragmented cell nuclei at 26 uM after 24 hrs by Hoechst 33342 staining; format: functional
[21] = tested on: L1210; test: Induction of apoptosis in mouse L1210 ATCC CCL 219 cells assessed as fragmented cell nuclei at 26 uM after 48 hrs by Hoechst 33342 staining; format: functional
[22] = tested on: L1210; test: Induction of apoptosis in mouse L1210 ATCC CCL 219 cells assessed as fragmented cell nuclei at 35 uM after 24 hrs by Hoechst 33342 staining; format: functional
[23] = tested on: L1210; test: Induction of apoptosis in mouse L1210 ATCC CCL 219 cells assessed as fragmented cell nuclei at 35 uM after 48 hrs by Hoechst 33342 staining; format: functional
[24] = tested on: L1210; test: Induction of apoptosis in mouse L1210 ATCC CCL 219 cells assessed as increase in caspase 3 activity at 17 uM after 48 hrs relative to control; format: functional
[25] = tested on: L1210; test: Induction of apoptosis in mouse L1210 ATCC CCL 219 cells assessed as increase in caspase 3 activity at 26 uM after 48 hrs relative to control; format: functional
[26] = tested on: L1210; test: Induction of apoptosis in mouse L1210 ATCC CCL 219 cells assessed as increase in caspase 3 activity at 35 uM after 48 hrs relative to control; format: functional
[27] = tested on: L1210; test: Induction of apoptosis in mouse L1210 ATCC CCL 219 cells assessed as fragmented cell nuclei at 1.7 uM after 24 hrs by Hoechst 33342 staining; format: functional
[28] = tested on: L1210; test: Induction of apoptosis in mouse L1210 ATCC CCL 219 cells assessed as fragmented cell nuclei at 1.7 uM after 48 hrs by Hoechst 33342 staining; format: functional
[29] = tested on: L1210; test: Induction of apoptosis in mouse L1210 ATCC CCL 219 cells assessed as increase in caspase 3 activity at 1.7 uM after 48 hrs relative to control; format: functional

## CC[C@H](C)[C@H](N/C(C)=C1\C(=O)C=C2Oc3c(C(C)=O)c(O)c(C)c(O)c3[C@@]2(C)C1=O)C(=O)O
[1]
  IC50: 17.4 µM
[2]
  IC50: > 100 µM
[3]
  IC50: 56.7 µM

## CC(=O)c1c(O)c(C)c(O)c2c1OC1=CC(=O)/C(=C(/C)NCCCCO)C(=O)[C@@]12C
[1]
  IC50: 19.9 µM
[4]
  IC50: 19.5 µM

## CC(=O)c1c(O)c(C)c(O)c2c1OC1=CC(=O)/C(=C(/C)NCCCNCCCCN)C(=O)[C@@]12C
[1]
  IC50: 8.4 µM
[4]
  IC50: 29.3 µM
[5]
  IC50: 28 µM
[2]
  IC50: 9.9 µM
[6]
  IC50: 12.5 µM

## CCCCCCCCCN/C(C)=C1\C(=O)C=C2Oc3c(C(C)=O)c(O)c(C)c(O)c3[C@@]2(C)C1=O
[1]
  IC50: > 500 µM

## CC(=O)c1c(O)c(C)c(O)c2c1OC1=CC(=O)/C(=C(/C)NCCCNCCCCNCCCN)C(=O)[C@@]12C
[1]
  IC50: 15.3 µM
[4]
  IC50: 48 µM
[5]
  IC50: 59 µM
[2]
  IC50: 11.2 µM
[6]
  IC50: 4.4 µM

## NCCCCN [PUTRESCINE]
[1]
  IC50: > 100 µM
[4]
  IC50: > 100 µM
[5]
  IC50: > 100 µM

## NCCCNCCCCNCCCN [SPERMINE]
[1]
  IC50: 54.5 µM
[4]
  IC50: > 100 µM
[5]
  IC50: > 100 µM

## NCCCCCCCCN
[1]
  IC50: > 100 µM
[4]
  IC50: > 100 µM

## CC(=O)c1c(O)c(C)c(O)c2c1OC1=CC(=O)/C(=C(/C)NCCCCN)C(=O)[C@@]12C
[1]
  IC50: 12 µM
[4]
  IC50: 10.7 µM
[5]
  IC50: 12 µM

## CCOC(=O)[C@H](Cc1ccccc1)N/C(C)=C1\C(=O)C=C2Oc3c(C(C)=O)c(O)c(C)c(O)c3[C@@]2(C)C1=O
[1]
  IC50: 74.4 µM
[2]
  IC50: > 100 µM
[3]
  IC50: > 100 µM
[6]
  IC50: > 100 µM

## CC(=O)c1c(O)c(C)c(O)c2c1OC1=CC(=O)/C(=C(/C)NCCCCCCCCN)C(=O)[C@@]12C
[1]
  IC50: 2.7 µM
[4]
  IC50: 3.5 µM
[5]
  IC50: 5 µM
[7]
  IC50: 8.2 µM
[8]
  IC50: 14 µM
[2]
  IC50: 5.8 µM
[3]
  IC50: 7.2 µM
[6]
  IC50: 8.2 µM
[9]
  Activity: 37%
[10]
  Activity: 37%
[11]
  Activity: 38%
[12]
  Activity: 42%
[13]
  Activity: 35%
[14]
  Activity: 48%
[15]
  Activity: 1.4
[16]
  Activity: 1.7
[17]
  Activity: 1.7

## CCOC(=O)[C@H](CC(C)C)N/C(C)=C1\C(=O)C=C2Oc3c(C(C)=O)c(O)c(C)c(O)c3[C@@]2(C)C1=O
[1]
  IC50: 48.9 µM
[2]
  IC50: > 100 µM
[3]
  IC50: 60.7 µM
[6]
  IC50: > 100 µM

## NCCCCNCCCN [SPERMIDINE]
[1]
  IC50: > 100 µM
[4]
  IC50: > 100 µM
[5]
  IC50: > 100 µM

## CC(=O)C1=C(O)C=C2Oc3c(C(C)=O)c(O)c(C)c(O)c3C2(C)C1=O (single isomer, unassigned) [(-)-USNIC ACID]
[1]
  IC50: 17.4 µM
[7]
  IC50: 35.1 µM
[8]
  IC50: 45.9 µM
[2]
  IC50: 51.7 µM
[3]
  IC50: 21.8 µM
[6]
  IC50: 19.7 µM

## CC(=O)C1=C(O)C=C2Oc3c(C(C)=O)c(O)c(C)c(O)c3[C@@]2(C)C1=O [(+)-USNIC ACID]
[1]
  IC50: 26.4 µM
[4]
  IC50: 31.3 µM
[5]
  IC50: 30 µM
[7]
  IC50: 23 µM
[8]
  IC50: 57.4 µM
[2]
  IC50: 105 µM
[3]
  IC50: 52.8 µM
[6]
  IC50: 19.5 µM
[18]
  Activity: 30%
[19]
  Activity: 33%
[20]
  Activity: 32%
[21]
  Activity: 38%
[22]
  Activity: 35%
[23]
  Activity: 42%
[24]
  Activity: 3.4
[25]
  Activity: 7.4
[26]
  Activity: 21.9

## COc1cc([C@@H]2c3cc4c(cc3[C@@H](O[C@@H]3O[C@@H]5CO[C@@H](C)O[C@H]5[C@H](O)[C@H]3O)[C@H]3COC(=O)[C@H]23)OCO4)cc(OC)c1O [ETOPOSIDE]
[1]
  IC50: 0.5 µM
[7]
  IC50: 4 µM
[8]
  IC50: 1.5 µM
[3]
  IC50: 4.9 µM
[6]
  IC50: 0.5 µM
[27]
  Activity: 47%
[28]
  Activity: 53%
[29]
  Activity: 19.5

Source: ChEMBL document CHEMBL1155015, “Synthesis and cytotoxic activities of usnic acid derivatives” (Bioorg Med Chem, 2008)
